Measurements: ChEMBL document CHEMBL3739386, “Synthesis and biological evaluation of picolinamides and thiazole-2-carboxamides as mGluR5 (metabotropic glutamate receptor 5) antagonists” (Bioorg Med Chem Lett, 2016)

Key:
[1] = molecular target: T1, Metabotropic glutamate receptor 5 (Homo sapiens, UniProt P41594); test: Antagonist activity at mGlu5 receptor (unknown origin) expressed in HEK cells assessed as inhibition of glutamate-induced calcium flux at 1 uM by fluorescence based assay; assay type: functional, cell-based; details: HEK293
Target sequence in this assay (P41594 21-1212 limits assumed): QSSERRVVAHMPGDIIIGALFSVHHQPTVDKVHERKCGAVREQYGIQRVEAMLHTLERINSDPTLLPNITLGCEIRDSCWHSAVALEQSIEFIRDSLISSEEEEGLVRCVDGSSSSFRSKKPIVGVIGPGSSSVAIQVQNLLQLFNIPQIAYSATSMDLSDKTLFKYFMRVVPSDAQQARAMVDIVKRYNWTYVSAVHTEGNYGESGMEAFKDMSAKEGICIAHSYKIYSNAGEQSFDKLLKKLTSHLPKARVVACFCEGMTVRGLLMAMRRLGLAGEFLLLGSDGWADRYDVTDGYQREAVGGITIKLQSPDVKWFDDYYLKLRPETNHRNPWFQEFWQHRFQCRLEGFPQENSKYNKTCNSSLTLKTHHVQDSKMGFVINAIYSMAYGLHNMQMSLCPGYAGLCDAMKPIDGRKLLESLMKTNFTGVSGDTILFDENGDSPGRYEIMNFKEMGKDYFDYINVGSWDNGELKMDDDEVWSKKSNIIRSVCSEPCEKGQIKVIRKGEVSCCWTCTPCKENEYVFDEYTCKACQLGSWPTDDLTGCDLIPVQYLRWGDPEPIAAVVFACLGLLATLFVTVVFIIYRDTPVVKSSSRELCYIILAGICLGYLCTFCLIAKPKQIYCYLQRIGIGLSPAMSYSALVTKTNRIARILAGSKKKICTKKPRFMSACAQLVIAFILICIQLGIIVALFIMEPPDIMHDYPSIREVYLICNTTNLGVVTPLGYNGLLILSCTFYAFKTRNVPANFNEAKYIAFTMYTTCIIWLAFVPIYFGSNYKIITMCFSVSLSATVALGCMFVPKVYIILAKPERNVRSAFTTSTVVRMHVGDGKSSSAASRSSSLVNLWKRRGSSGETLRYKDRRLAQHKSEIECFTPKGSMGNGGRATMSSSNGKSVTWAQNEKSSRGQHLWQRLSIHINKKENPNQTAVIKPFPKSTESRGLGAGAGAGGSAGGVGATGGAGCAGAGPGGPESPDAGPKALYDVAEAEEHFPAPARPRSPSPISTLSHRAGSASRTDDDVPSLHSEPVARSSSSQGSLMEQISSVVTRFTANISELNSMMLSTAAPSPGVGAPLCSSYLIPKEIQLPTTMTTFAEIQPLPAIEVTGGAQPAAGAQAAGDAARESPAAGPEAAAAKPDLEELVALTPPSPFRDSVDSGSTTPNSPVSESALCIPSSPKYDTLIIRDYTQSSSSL

[2] = molecular target: T1, Metabotropic glutamate receptor 5; test: Antagonist activity at mGlu5 receptor (unknown origin) expressed in HEK cells assessed as inhibition of glutamate-induced calcium flux at 10 uM by fluorescence based assay; assay type: functional, cell-based; details: HEK293
Target sequence in this assay (P41594 21-1212 limits assumed): as above

CYP2C9 = CYP2C9 (Homo sapiens, UniProt P11712); test: Inhibition of human CYP2C9 assessed as remaining activity at 10 uM; assay type: ADME; details: read-out: Activity
CYP2C9, sequence (P11712 whole entry): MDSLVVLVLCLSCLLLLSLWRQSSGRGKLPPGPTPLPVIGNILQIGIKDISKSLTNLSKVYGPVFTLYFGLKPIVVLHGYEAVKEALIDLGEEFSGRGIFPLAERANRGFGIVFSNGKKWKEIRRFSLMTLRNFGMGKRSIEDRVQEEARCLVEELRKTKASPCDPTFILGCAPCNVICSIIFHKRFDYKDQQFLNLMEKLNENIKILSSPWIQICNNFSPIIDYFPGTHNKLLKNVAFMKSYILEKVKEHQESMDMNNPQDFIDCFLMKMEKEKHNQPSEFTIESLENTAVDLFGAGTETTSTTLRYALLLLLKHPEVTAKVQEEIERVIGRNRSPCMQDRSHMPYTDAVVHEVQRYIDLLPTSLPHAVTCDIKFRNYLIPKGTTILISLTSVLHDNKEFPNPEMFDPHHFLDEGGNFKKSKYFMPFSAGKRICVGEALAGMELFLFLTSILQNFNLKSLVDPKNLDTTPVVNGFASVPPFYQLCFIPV

CYP1A2 = molecular target: T2, CYP1A2 (Homo sapiens, UniProt P05177); test: Inhibition of human CYP1A2 assessed as remaining activity at 10 uM; assay type: ADME; details: read-out: Activity
T2 sequence (P05177 whole entry): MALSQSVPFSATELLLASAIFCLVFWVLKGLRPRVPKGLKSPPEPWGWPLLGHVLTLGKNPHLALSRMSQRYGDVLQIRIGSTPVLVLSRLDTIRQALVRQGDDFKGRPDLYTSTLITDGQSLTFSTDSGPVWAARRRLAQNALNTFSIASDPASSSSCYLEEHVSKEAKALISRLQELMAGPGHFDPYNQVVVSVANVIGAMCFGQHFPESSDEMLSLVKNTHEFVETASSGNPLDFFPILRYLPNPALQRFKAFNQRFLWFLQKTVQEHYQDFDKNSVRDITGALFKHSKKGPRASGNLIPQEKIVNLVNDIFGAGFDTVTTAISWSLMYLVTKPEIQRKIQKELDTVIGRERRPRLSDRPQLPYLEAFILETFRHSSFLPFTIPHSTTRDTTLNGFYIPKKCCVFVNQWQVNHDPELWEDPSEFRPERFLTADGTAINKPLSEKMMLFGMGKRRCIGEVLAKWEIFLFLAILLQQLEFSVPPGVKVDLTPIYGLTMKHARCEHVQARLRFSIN

CYP2C19 = CYP2C19 (Homo sapiens, UniProt P33261); test: Inhibition of human CYP2C19 assessed as remaining activity at 10 uM; assay type: ADME; details: read-out: Activity
CYP2C19, sequence (P33261 whole entry): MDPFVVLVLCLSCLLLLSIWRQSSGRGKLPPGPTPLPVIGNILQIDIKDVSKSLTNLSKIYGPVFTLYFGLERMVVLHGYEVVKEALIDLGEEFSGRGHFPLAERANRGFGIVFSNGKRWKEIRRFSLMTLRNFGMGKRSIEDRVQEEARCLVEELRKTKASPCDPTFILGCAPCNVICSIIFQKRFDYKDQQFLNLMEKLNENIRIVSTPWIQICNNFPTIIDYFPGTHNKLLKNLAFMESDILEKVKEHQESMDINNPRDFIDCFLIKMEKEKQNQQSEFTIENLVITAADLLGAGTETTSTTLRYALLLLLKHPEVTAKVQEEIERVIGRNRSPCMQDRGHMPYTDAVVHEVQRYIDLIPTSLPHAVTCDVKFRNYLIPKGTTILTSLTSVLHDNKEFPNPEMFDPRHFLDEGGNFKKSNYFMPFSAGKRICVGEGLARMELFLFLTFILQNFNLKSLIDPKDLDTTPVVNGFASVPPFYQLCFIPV

hERG (KCNH2) [3] = molecular target: T3, hERG (KCNH2) (Homo sapiens, UniProt Q12809); test: Inhibition of human ERG at 1 uM by patch-clamp method
T3 sequence (Q12809 whole entry): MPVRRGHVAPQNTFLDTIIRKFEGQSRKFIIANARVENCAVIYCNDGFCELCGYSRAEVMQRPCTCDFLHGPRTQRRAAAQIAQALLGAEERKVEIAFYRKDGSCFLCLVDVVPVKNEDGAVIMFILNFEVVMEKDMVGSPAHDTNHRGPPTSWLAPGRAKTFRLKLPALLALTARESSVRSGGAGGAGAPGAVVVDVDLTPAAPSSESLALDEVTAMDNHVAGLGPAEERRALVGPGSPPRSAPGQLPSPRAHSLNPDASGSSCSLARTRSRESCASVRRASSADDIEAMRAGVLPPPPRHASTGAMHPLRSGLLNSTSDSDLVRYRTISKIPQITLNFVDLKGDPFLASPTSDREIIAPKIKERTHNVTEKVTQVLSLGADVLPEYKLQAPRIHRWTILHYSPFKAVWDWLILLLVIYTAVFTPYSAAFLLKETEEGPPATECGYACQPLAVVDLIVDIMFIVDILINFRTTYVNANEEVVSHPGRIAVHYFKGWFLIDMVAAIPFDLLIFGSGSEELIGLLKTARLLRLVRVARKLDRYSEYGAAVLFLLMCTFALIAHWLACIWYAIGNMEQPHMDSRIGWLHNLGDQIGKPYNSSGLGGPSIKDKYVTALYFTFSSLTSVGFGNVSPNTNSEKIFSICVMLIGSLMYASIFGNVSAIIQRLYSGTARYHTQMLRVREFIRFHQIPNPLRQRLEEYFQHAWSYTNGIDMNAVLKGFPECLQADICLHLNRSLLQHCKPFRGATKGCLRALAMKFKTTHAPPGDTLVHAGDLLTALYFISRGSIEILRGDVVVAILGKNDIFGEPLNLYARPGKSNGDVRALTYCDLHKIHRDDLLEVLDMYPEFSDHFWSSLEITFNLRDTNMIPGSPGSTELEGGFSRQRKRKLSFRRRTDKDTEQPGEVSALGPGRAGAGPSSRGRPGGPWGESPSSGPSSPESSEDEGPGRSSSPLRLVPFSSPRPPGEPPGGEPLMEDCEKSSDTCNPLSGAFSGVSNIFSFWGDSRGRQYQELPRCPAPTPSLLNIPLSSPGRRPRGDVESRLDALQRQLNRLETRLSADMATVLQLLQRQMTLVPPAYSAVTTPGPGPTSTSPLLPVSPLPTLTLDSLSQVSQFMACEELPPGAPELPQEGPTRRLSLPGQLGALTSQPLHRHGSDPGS

CYP3A4 = CYP3A4 (Homo sapiens, UniProt P08684); test: Inhibition of human CYP3A4 assessed as remaining activity at 10 uM; assay type: ADME; details: read-out: Activity
CYP3A4, sequence (P08684 whole entry): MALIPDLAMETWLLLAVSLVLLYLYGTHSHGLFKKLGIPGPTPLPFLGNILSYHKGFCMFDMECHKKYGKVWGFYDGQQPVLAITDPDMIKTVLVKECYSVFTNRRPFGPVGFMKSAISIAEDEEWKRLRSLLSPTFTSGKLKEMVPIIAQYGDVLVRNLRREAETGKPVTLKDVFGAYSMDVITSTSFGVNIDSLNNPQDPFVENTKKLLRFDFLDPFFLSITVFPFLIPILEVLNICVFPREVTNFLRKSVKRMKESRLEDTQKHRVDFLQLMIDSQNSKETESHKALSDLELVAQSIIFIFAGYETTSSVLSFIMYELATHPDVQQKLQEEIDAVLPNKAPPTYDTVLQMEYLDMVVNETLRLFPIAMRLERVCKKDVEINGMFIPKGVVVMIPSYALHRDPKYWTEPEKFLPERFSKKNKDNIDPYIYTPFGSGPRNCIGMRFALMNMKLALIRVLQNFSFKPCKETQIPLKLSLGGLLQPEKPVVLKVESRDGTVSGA

hERG (KCNH2) [4] = molecular target: T3, hERG (KCNH2); test: Inhibition of human ERG at 0.1 uM by patch-clamp method
[5] = molecular target: T1, Metabotropic glutamate receptor 5; test: Antagonist activity at mGlu5 receptor (unknown origin) expressed in HEK cells assessed as inhibition of glutamate-induced calcium flux by fluorescence based assay; assay type: functional, cell-based, HEK293
Target sequence in this assay (P41594 whole entry): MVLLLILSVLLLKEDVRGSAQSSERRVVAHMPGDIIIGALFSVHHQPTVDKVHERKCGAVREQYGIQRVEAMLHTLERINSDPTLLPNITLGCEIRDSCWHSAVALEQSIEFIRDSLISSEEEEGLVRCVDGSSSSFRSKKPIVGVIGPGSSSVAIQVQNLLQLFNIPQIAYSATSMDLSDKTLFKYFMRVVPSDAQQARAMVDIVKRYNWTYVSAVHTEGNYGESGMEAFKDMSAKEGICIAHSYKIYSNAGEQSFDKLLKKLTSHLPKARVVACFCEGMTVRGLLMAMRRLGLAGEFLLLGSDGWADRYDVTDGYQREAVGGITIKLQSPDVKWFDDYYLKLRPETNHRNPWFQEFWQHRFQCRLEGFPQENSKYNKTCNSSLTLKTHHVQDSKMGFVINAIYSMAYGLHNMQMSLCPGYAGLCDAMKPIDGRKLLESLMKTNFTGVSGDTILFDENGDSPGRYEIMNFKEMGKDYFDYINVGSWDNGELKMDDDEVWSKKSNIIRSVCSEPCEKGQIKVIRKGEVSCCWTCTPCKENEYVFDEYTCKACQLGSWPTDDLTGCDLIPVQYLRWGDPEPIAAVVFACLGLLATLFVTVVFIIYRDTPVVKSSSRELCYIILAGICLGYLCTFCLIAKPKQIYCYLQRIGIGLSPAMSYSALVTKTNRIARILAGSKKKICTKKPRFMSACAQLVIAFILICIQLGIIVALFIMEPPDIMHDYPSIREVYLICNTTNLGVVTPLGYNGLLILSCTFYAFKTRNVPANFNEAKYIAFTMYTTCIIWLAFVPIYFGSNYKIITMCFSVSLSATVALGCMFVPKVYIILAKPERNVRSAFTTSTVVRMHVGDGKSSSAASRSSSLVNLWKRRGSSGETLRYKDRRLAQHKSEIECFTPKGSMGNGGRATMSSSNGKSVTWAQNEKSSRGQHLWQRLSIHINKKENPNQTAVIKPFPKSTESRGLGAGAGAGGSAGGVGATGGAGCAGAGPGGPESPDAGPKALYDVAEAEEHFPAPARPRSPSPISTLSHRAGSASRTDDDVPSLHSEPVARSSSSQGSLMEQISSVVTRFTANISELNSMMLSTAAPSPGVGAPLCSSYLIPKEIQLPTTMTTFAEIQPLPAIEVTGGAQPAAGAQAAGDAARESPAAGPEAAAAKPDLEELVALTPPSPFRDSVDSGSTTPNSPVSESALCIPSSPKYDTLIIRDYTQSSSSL

CYP2D6 = CYP2D6 (Homo sapiens, UniProt P10635); test: Inhibition of human CYP2D6 assessed as remaining activity at 10 uM; assay type: ADME; details: read-out: Activity
[6] = Metabolic stability in human liver microsomes assessed as compound remaining at 1 uM after 30 mins; assay type: ADME; details: read-out: Stability
hERG (KCNH2) [7] = molecular target: T3, hERG (KCNH2); test: Inhibition of human ERG at 10 uM by patch-clamp method

Compound | inhibition [1] [%] | inhibition [2] [%] | also measured
N#Cc1csc(C(=O)Nc2cccc(Cl)n2)n1 | -9.4 | – | –
Cc1ccnc(Cl)c1NC(=O)c1cccc(Cl)n1 | 15.7 | 18.6 | –
Cc1cccc(NC(=O)c2nc(C)cs2)n1 | 50.1 | – | –
O=C(Nc1cccc(Br)n1)c1nc(Br)cs1 | 19.8 | – | –
N#Cc1cccc(NC(=O)c2nc(C#N)cs2)n1 | 8.3 | – | –
COc1ccc(NC(=O)c2cccc(Cl)n2)cn1 | 18.5 | 43.4 | –
N#Cc1cccc(NC(=O)c2nc(Br)cs2)c1 | -0.1 | – | –
Cc1cccc(NC(=O)c2nc(Br)cs2)c1 | 40.9 | – | –
Cc1ccnc(Cl)c1NC(=O)c1ccccn1 | 16.1 | 17.7 | –
O=C(Nc1cc(Cl)cnc1Cl)c1ccccn1 | 13.8 | 51 | –
Cc1cccc(C(=O)Nc2cccc(C#N)c2)n1 | 18.4 | 68.1 | –
O=C(Nc1cccnc1)c1ccccn1 | 25.6 | 30.3 | –
O=C(Nc1ccccn1)c1ccccn1 | 34.5 | 65.5 | –
O=C(Nc1cccc(Cl)c1)c1cccc(F)n1 | 13.1 | 33.4 | –
Cc1csc(C(=O)Nc2ccccn2)n1 | 47.1 | – | –
N#Cc1csc(C(=O)Nc2cccc(F)n2)n1 | -0.4 | – | –
N#Cc1cccc(NC(=O)c2cccc(F)n2)c1 | 3.2 | 34 | –
O=C(Nc1cccc(F)n1)c1nc(Br)cs1 | 27.6 | – | –
O=C(Nc1cccc(F)c1)c1nc(Br)cs1 | 13.7 | – | –
Cc1csc(C(=O)Nc2cccc(Br)c2)n1 | 18 | – | –

Compound | inhibition [1] [%] | inhibition [2] [%] | also measured
O=C(Nc1cccc(Cl)c1)c1nc(Br)cs1 | 58.1 | – | –
COc1cccc(C(=O)Nc2cccnc2)n1 | 22.8 | 23.1 | –
Cc1cccc(NC(=O)c2nc(C#N)cs2)n1 | 24.7 | – | –
N#Cc1csc(C(=O)Nc2cccc(Cl)c2)n1 | -7.3 | – | –
Cc1csc(C(=O)Nc2cccc(Cl)n2)n1 | 45 | – | –
COc1ccc(NC(=O)c2ccccn2)cn1 | 14 | 25.5 | –
Cc1cccc(C(=O)Nc2cccc(Cl)c2)n1 | 10.5 | 52.1 | –
Cc1csc(C(=O)Nc2cccc(F)c2)n1 | 3.1 | – | –
Cc1cccc(NC(=O)c2nc(Br)cs2)n1 | 81 | – | activity at 10 µM (CYP2C9): 88.2%; activity at 10 µM (CYP1A2): 11%; activity at 10 µM (CYP2C19): 7.4%; inhibition at 1 µM (hERG (KCNH2) [3]): 19.4%; activity at 10 µM (CYP3A4): 87.3%; inhibition at 0.1 µM (hERG (KCNH2) [4]): 15%; IC50 [5]: 159 nM; activity at 10 µM (CYP2D6): 99.2%; remaining at 0.5 h, 1 µM [6]: 7.25%; inhibition at 10 µM (hERG (KCNH2) [7]): 34.8%
O=C(Nc1cccnc1)c1cccc(Cl)n1 | 19.1 | 33.4 | –
O=C(Nc1ccc(Cl)nc1Cl)c1ccccn1 | 3.85 | 35.4 | –
Cc1csc(C(=O)Nc2cccc(C#N)c2)n1 | 16.6 | – | –
O=C(Nc1ccc(Cl)cn1)c1ccccn1 | 16.2 | 30.7 | –
Cc1cccc(NC(=O)c2nc(C)cs2)c1 | 11.6 | – | –
O=C(Nc1cccc(Br)c1)c1nc(Br)cs1 | 71.1 | – | activity at 10 µM (CYP2C9): 99%; activity at 10 µM (CYP1A2): 38.3%; activity at 10 µM (CYP2C19): 86.3%; inhibition at 1 µM (hERG (KCNH2) [3]): 29.3%; activity at 10 µM (CYP3A4): 84.9%; inhibition at 0.1 µM (hERG (KCNH2) [4]): 16.3%; IC50 [5]: 274 nM; activity at 10 µM (CYP2D6): 102%; remaining at 0.5 h, 1 µM [6]: 37.3%; inhibition at 10 µM (hERG (KCNH2) [7]): 39.6%
Cc1csc(C(=O)Nc2cccc(Cl)c2)n1 | 32.2 | – | –
N#Cc1cccc(NC(=O)c2nc(Br)cs2)n1 | 9.6 | – | –
N#Cc1csc(C(=O)Nc2cccc(Br)c2)n1 | 19.5 | – | –
O=C(Nc1cccc(Cl)n1)c1nc(Br)cs1 | 60 | – | –
